Experimental data taken from patent EP2730584B1, “PROTEIN-P[…] OBTAINED FROM NERVOUS TISSUE OF HOOFED LIVESTOCK EMBRYOS, PROCESS FOR PREPARING SAME AND PHARMACEUTICAL COMPOSITION” (Aktsionernoe Obschestvo "Pharm-Sintez", priority 2011, dated 2012).

Tested on: mice marrow cells
Protocol: The study objective was detection and quantitative estimate of cytogenetic (mutagenic) activity of pharmacologic substances in polychromatophil cells (PCC) of mammal marrow. The method is based on microscopic recording of cells with micronuclei.
The experiments were performed to 2 months old male and female F1 (CBAx C57BI6/J) cross-breed mice weighing 18-20 g. Each group included 6 animals. The animals were kept at 12 hours light pattern with free food and water access. Animal experiments for assessment of mutagenic properties of the PPNC with single and five-time dosing were conducted in compliance with official records. Three sessions of experiments were carried out with corresponding controls: therapeutic dose was tested on male animals with a single introduction; subtoxic dose was tested on male animals with a single introduction; therapeutic dose was tested on male animals with a single introduction; subtoxic dose was tested on male animals and female with five-time introduction. […] The PPNC dosing for assessment of mutagenic activity was calculated based on the maximum human recommended daily therapeutic dose (TD). […] In order to calculate an experiment dosing for mice, a conversion factor is recommended that takes into account a human or animal body surface area to weight ratio. In our study, it was 8.33. Therefore, the mice TD was approximately 8.33 x human TD (0.42 mg/kg).
As a subtoxic dose, 10mg/kg, the maximum possible in this experiment conditions dosing was used, as the substance was presented in 0.1 mg/ml concentration, and the normally used amount of substance for mice is 0.1 ml per 10 g.
Seven animal groups were formed: four experimental groups and three corresponding reference groups. The substance in the amount of 0.1 mg/kg was introduced five times at 24 hours interval to males and females. […]
Marrow cell preparations for micronuclei count were made by a standard method in compliance with common guidelines [20]. […] 2,000 polychromatophil cells from each animal were analyzed in encoded preparations. […]

O=P1(N(CCCl)CCCl)NCCCO1 (stereo not drawn) [Cyclophosphamide, cyclophosphamide]
frequency of micronucleus cells (20 mg/kg intraperitoneally, male mice, 3.16 % in reference): 62.1% | increased frequency of micronucleus cells (20 mg/kg intraperitoneally, male mice, P<0.001): 19.6 times | polychromatophilic to normochromatic erythrocytes ratio (20 mg/kg, compared to control P<0.005): found to shift to the latter
